Measured values as given in PubChem BioAssay (NCI).
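Exposure lasted 48 hours, with cells grown in 96-well plates and compounds tested at five concentrations. GI50 = concentration required for 50% inhibition of growth. Definition used: TGI = concentration required for complete inhibition of growth.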

Columns and labels:
Assay in all cases: NCI tumour cell line growth inhibition, 48 h
DMS 114 small cell lung = system: DMS 114 small cell lung
M19-MEL melanoma = system: M19-MEL melanoma
786-0 renal = system: 786-0 renal
DLD-1 colon = system: DLD-1 colon
P388 leukemia = system: P388 leukemia
P388/ADR leukemia = system: P388/ADR leukemia
SN12K1 renal = system: SN12K1 renal
SNB-78 CNS = system: SNB-78 CNS

SMILES | TGI (DMS 114 small cell lung) [µM] | TGI (M19-MEL melanoma) [µM] | TGI (786-0 renal) [µM] | TGI (DLD-1 colon) [µM] | TGI (P388 leukemia) [µM] | TGI (P388/ADR leukemia) [µM] | TGI (SN12K1 renal) [µM] | TGI (SNB-78 CNS) [µM] | also measured
O=C1C(Cl)N(c2ccccc2Cl)C1c1c[nH]c2ccccc12 (stereo unspecified) | > 100 | > 100 | – | – | – | – | – | – | –
CSCCC(C(=O)O)N(C)C (stereo unspecified) | – | – | > 100 | – | – | – | – | – | –
O=C1c2cc(O)c(O)cc2O[C@H](c2ccc(O)c(O)c2)[C@H]1O | – | – | > 100 | – | – | – | – | – | –
C=C(C#N)C(=O)OCC(CC)CC.C=C(C#N)C(=O)OCC(CC)CC.CS(C)=O.CS(C)=O.Nc1c(N=Nc2ccc(-c3ccc(N=Nc4cc(S(=O)(=O)[O-])c5ccccc5c4N)cc3)cc2)cc(S(=O)(=O)[O-])c2ccccc12.[Pt+2] | – | – | – | > 77.8 | > 100 | > 100 | 40.1 | > 95.6 | GI50 (DLD-1 colon): 28.2 µM; GI50 (P388 leukemia): 29.6 µM; GI50 (P388/ADR leukemia): 27.2 µM; GI50 (SN12K1 renal): 19.7 µM; GI50 (SNB-78 CNS): 38.8 µM
C=CCNC(=O)C(C)C1CCC2(C)C=CC(=O)C(C)=C2C1O (stereo unspecified) | > 100 | > 100 | – | > 100 | > 100 | > 100 | > 100 | > 89.1 | –
